Assay results published in patent publication US10301325B2, “Quinoline derivative, and pharmaceutical composition, preparation method and use thereof” (SHANGHAI HAIJU BIOLOGICAL TECHNOLOGY CO., LTD., priority 2015, dated 2019).

What was measured:
c-Met kinase = c-Met kinase (Homo sapiens, UniProt P08581); test: c-Met kinase activity assay (HTRF); format: biochemical; details: c-Met kinase from Carna Biosciences, read-out: IC50 (c-Met/BIO)
Description: The inhibitory ability of the compounds of the present invention on c-Met kinase activity was determined by Homogeneous Time-Resolved Fluorescence (HTRF), and was expressed by the median inhibitory concentration IC50 value of the compounds. The method was as follows: a series of compounds with gradient concentration were incubated with a specific concentration of the enzyme solution for 5 minutes at room temperature, after which an appropriate amount of enzyme reaction substrate and ATP were added to start the enzyme reaction process. After 30 minutes, an appropriate amount of stop solution and detection solution were added, and the mixture was incubated for 1 hour. Then, the enzyme activity at specific compound concentrations was measured at wavelengths of 665 nm and 620 nm on Envision 2104 Multilabel Microcell Detector of PerkinElmer Company, and the inhibitory activity of the compound at different concentrations on enzyme activity was calculated, then the result was fitted to calculate the IC50 value. The c-Met kinase used in this embodiment was purchased from Carna Biosciences, the test kit HTRF KinEASE-TK was purchased from Cisbio Bioassays Company, and ATP was purchased from Sigma Aldrich Company.

[1] = system: human gastric cancer cells SNU-5 with high expression of c-Met; test: c-Met cell proliferation inhibition test (CCK-8, 72 hours); format: cell-based; details: SNU-5 cells
Description: The inhibitory activity of the test compound on proliferation of human gastric cancer cells SNU-5 with high expression of c-Met was determined through the following in vitro cell assay, and the activity can be expressed by IC50 value. Specific experimental method can refer to Neru Munshi, Sebastien Jeay, Youzhi Li, et al., ARQ 197, a Novel and Selective Inhibitor of the Human c-Met Receptor Tyrosine Kinase with Antitumor Activity. Mol Cancer Ther 2010; 9:1544-1553, the content of which is incorporated herein by reference in its entirety. The general method is as follows: first, human tumor cells SNU-5 (purchased from the Institute of Biochemistry and Cell Biology) with high expression of c-Met was selected and inoculated on a 96-well culture plate at a suitable cell concentration (e.g., 5000 cells/ml culture medium), then they were diluted with IMDM culture medium containing 2% FBS to form a series of test compound solutions at gradient concentrations (generally 6 to 7 concentrations) and continuously incubated for 72 hours. After 72 hours, the activity of the test compound on inhibiting cell proliferation could be determined using the Cell Counting Kit-8 (CCK-8, purchased from DojinDo) method. The IC50 value can be calculated from the inhibitory values on cell proliferation of the test compound at a series of different concentrations.

c-Met kinase, sequence (P08581 25-1390): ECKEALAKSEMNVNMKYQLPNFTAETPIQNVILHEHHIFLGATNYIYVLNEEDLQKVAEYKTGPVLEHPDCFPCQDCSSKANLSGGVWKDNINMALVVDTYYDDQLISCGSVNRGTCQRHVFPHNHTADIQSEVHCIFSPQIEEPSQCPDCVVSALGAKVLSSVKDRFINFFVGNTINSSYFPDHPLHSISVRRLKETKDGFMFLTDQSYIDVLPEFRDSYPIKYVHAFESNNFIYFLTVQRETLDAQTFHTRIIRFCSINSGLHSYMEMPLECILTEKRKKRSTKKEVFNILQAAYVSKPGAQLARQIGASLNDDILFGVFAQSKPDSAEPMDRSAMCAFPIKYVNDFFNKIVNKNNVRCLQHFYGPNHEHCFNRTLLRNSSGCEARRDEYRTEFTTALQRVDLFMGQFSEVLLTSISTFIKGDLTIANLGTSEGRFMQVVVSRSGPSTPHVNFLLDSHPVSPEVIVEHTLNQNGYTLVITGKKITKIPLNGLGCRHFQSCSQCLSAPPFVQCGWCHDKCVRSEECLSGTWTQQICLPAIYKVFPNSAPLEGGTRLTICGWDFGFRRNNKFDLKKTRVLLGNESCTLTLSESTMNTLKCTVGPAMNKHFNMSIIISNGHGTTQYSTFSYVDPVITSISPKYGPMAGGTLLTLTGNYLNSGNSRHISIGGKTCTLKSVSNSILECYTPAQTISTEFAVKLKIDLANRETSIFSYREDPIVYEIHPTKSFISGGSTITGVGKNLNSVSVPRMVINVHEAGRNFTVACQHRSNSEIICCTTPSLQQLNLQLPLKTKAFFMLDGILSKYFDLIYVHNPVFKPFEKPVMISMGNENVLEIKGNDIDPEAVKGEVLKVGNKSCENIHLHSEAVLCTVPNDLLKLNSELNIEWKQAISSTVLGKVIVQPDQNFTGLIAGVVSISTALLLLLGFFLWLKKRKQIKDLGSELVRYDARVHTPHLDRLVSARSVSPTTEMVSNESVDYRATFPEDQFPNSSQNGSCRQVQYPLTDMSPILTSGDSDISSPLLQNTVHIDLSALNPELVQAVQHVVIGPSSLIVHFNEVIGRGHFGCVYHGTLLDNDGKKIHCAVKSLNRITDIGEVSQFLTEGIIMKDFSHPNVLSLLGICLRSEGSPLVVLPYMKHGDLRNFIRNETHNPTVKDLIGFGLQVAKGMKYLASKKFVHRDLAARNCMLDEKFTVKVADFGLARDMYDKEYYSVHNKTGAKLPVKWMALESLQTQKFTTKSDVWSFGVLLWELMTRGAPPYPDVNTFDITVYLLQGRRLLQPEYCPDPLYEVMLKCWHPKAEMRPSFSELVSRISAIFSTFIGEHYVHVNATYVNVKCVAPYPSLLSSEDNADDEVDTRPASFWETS

| SMILES | IC50 (c-Met kinase) | IC50 [1] |
| --- | --- | --- |
| Cn1cc(-c2ccc3nnc(C(F)(F)c4ccc5ncccc5c4)n3n2)cn1 [JNJ-38877605, reference compound] | 4.9 nM | 4.7 nM |
| CN1C(=O)COc2c1cnc1cc(F)c(C(F)(F)c3nnc4ccc(-c5cnn(C)c5)nn34)cc21 [Embodiment 1, 9-{difluoro(6-(1-methyl-1H-pyrazol-4-yl)-[1,2,4]triazolo[4,3-b]pyridazin-3-yl)methyl}-8-fluoro-4-methyl-2H-[1,4]oxazino[3,2-c]quinolin-3(4H)-one] | 1 nM | 1.2 nM |
| CN1C(=O)COc2c1cnc1cc(F)c(Sc3nnc4ccc(-c5cnn(C)c5)nn34)cc21 [Embodiment 2, 8-fluoro-4-methyl-9-{[6-(1-methyl-1H-pyrazol-4-yl)-[1,2,4]triazolo[4,3-b]pyridazin-3-yl]sulfanyl}-2H-[1,4]oxazino[3,2-c]quinolin-3 (4H)-one] | 2.2 nM | 2.8 nM |
